According to patent US20240343699A1, “DERIVATIVES OF SUBSTITUTED MORPHOLINES AND USES THEREOF” (Supernus Pharmaceuticals, Inc., priority 2023, published 2024):
Values joined by “and” are separate entries in the source; they are usually repeats but may differ in a detail not shown here. Equal values may be shown once. Read-outs that look alike come from different tables or passages of the source.

Assays:
[1] = format: in vitro ADME; conditions: Rat plasma, wet ice bath
Procedure: A study was conducted to examine the bioanalytical data for compounds in Rat plasma. […] Frozen Sprague Dawley rat (male pooled) and human (mixed gender) plasma was utilized for the study. Test compounds were dissolved in dimethyl sulfoxide (DMSO) to make a 10 mM stock solution. A working solution was made with MeOH/water. […]

[2] = format: in vitro ADME, mouse; conditions: mice Blood, wet ice bath, 5% Paraoxon ethyl as stabilizer; for % stability: 0.5 hr
Binding assays = conditions: 1.0E−05 M
Procedure: A study was conducted to test COMPOUND D and COMPOUND E in Binding and enzyme and uptake assays.
COMPOUND D and COMPOUND E were tested at 1.0E-05 M.
The results are expressed as a percent of control specific binding and as a percent inhibition of control specific binding
The IC50 values (concentration causing a half-maximal inhibition of control specific binding) and Hill coefficients (nH) were determined by non-linear regression analysis of the competition curves generated with mean replicate values using Hill equation curve fitting […]
where Y=specific binding, A=left asymptote of the curve, D=right asymptote of the curve, C=compound concentration, C50=IC50, and nH=slope factor. This analysis was performed using software developed at Cerep (Hill software) and validated by comparison with data generated by the commercial software SigmaPlot® 4.0 for Windows® (© 1997 by SPSS Inc.).
The inhibition constants (Ki) were calculated using the Cheng Prusoff equation where L=concentration of radioligand in the assay, and KD=affinity of the radioligand for the receptor. A scatchard plot is used to determine the KD.
In Vitro Pharmacology. Results showing an inhibition (or stimulation for assays run in basal conditions) higher than […] were considered to represent significant effects of the test compounds. Results showing an inhibition (or stimulation) between 25% and 50% are indicative of weak to moderate effects. Results showing an inhibition (or stimulation) lower than […] were not considered significant and mostly attributable to variability of the signal around the control level.

[3] = Preclinical PK after intraperitoneal dosing of COMPOUND D, COMPOUND B and viloxazine; format: in vivo, mouse; conditions: COMPOUND B IP 10.948 mg/kg; for concentration at 0.25 h / concentration at 0.5 h: read-out: Plasma concentration of COMPOUND B; for MRT last: read-out: MRT0-last, plasma COMPOUND B; for Tmax: read-out: Tmax, plasma COMPOUND B
[4] = mouse, plasma, ip, 10.948 mg/kg, individual mice
[5] = mouse, plasma, ip, 10.948 mg/kg, mean

SMILES: CCOc1ccccc1OCC1CN(C(=O)OC(OC(=O)[C@@H](N)C(C)C)C(C)C)CCO1 (stereo partly shown) [COMPOUND E]
- Mean peak area ratio ([1]; 5% Paraoxon ethyl as stabilizer, HQC, 0 hr sample): 3.38
- % stability ([1]; 5% Paraoxon ethyl as stabilizer, HQC, 1 hr): 79.5%
- Mean peak area ratio ([1]; 5% Paraoxon ethyl as stabilizer, HQC, 1 hr sample): 2.69
- % stability ([1]; 5% Paraoxon ethyl as stabilizer, HQC, 2 hr): 62.9%
- Mean peak area ratio ([1]; 5% Paraoxon ethyl as stabilizer, HQC, 2 hr sample): 2.13
- Mean peak area ratio ([1]; 5% Paraoxon ethyl as stabilizer, LQC, 0 hr sample): 0.00882
- % stability ([1]; 5% Paraoxon ethyl as stabilizer, LQC, 1 hr): 68.3%
- Mean peak area ratio ([1]; 5% Paraoxon ethyl as stabilizer, LQC, 1 hr sample): 0.00602
- % stability ([1]; 5% Paraoxon ethyl as stabilizer, LQC, 2 hr): 63.7%
- Mean peak area ratio ([1]; 5% Paraoxon ethyl as stabilizer, LQC, 2 hr sample): 0.00562
- Mean peak area ratio ([1]; No stabilizer, HQC, 0 hr sample): 1.58
- % stability ([1]; No stabilizer, HQC, 1 hr): 20.9%
- Mean peak area ratio ([1]; No stabilizer, HQC, 1 hr sample): 0.33
- % stability ([1]; No stabilizer, HQC, 2 hr): 2.5%
- Mean peak area ratio ([1]; No stabilizer, HQC, 2 hr sample): 0.04
- Mean peak area ratio ([1]; No stabilizer, LQC, 0 hr sample): 0.00472
- % stability ([1]; No stabilizer, LQC, 1 hr): 28.2%
- Mean peak area ratio ([1]; No stabilizer, LQC, 1 hr sample): 0.00133
- % stability ([1]; No stabilizer, LQC, 2 hr): 5.3%
- Mean peak area ratio ([1]; No stabilizer, LQC, 2 hr sample): 0.00025
- Mean peak area ([2]; HQC, 0 hr sample): 2.903
- % stability ([2]; HQC): 103%
- Mean peak area ([2]; HQC, 0.5 hr sample): 3.00
- Mean peak area ([2]; LQC, 0 hr sample): 0.00933
- % stability ([2]; LQC): 86.3%
- Mean peak area ([2]; LQC, 0.5 hr sample): 0.00806
- inhibition, 5-HT2B(h) (agonist radioligand) (Binding assays): 80.2%
- inhibition, 5-HT2C(h) (agonist radioligand) (Binding assays): 54.1%
- inhibition, Ca^2+ channel (L, diltiazem site) (benzothiazepines) (antagonist radioligand) (Binding assays): 78.9%
- inhibition, Ca^2+ channel (L, verapamil site) (phenylalkylamine) (antagonist radioligand) (Binding assays): 50.7%
- inhibition, MT3 (ML2) (agonist radioligand) (Binding assays): 51.1%
- inhibition, Na^+ channel (site 2) (antagonist radioligand) (Binding assays): 84.5%

SMILES: CCOc1ccccc1OC[C@@H]1CN(C(=O)OC(OC(=O)[C@@H](N)C(C)C)C(C)C)CCO1 (stereo partly shown) [COMPOUND B]
- Plasma concentration of COMPOUND B ([3]; 0.250 h, individual mice, 10.948 mg/kg): BQL and 17.7 ng/mL
- Plasma concentration of COMPOUND B ([3]; 0.500 h, individual mice, 10.948 mg/kg): 4.88 ng/mL and 8.44 ng/mL
- Plasma concentration of COMPOUND B ([3]; 1.00 h, individual mice): BQL
- Plasma concentration of COMPOUND B ([3]; 2.00 h, individual mice): BQL
- Plasma concentration of COMPOUND B ([3]; 4.00 h, individual mice): BQL
- Plasma concentration of Viloxazine ([3]; 4.00 h, individual mice, 10.948 mg/kg): BQL
- Plasma concentration of COMPOUND B ([3]; 8.00 h, individual mice): BQL
- Plasma concentration of Viloxazine ([3]; 8.00 h, individual mice, 10.948 mg/kg): BQL
- Plasma concentration of COMPOUND B ([3]; 24.0 h, individual mice): BQL
- Plasma concentration of Viloxazine ([3]; 24.0 h, individual mice): BQL
- Tlast, plasma COMPOUND B ([3]; individual mice): 0.500 h
- AUC0-last, plasma COMPOUND B ([3]; individual mice, 10.948 mg/kg): 6.48 ng·h/mL and 1.22 ng·h/mL and 5.34 ng·h/mL
- Cmax, plasma COMPOUND B ([3]; individual mice, 10.948 mg/kg): 25.4 ng/mL and 4.88 ng/mL and 17.7 ng/mL
- MRT0-last, plasma COMPOUND B ([3]; individual mice, 10.948 mg/kg): 30 min and 18.8 min
- Tmax, plasma COMPOUND B ([3]; individual mice, 10.948 mg/kg): 30 min and 15 min
- Tlast, plasma COMPOUND B ([3]; mean): 0.500 h
- concentration at 0.25 h ([3]; mouse, plasma, ip, 10.948 mg/kg, 0.250 h, individual mice): 25.4 ng/mL
- concentration at 0.25 h ([3]; mouse, plasma, ip, 10.948 mg/kg, 0.250 h, mean): 21.6 ng/mL
- concentration at 0.5 h ([3]; mouse, plasma, ip, 10.948 mg/kg, 0.500 h, individual mice): 5.75 ng/mL
- concentration at 0.5 h ([3]; mouse, plasma, ip, 10.948 mg/kg, 0.500 h, mean): 6.36 ng/mL
- MRT last [3, 4]: 17.9 min
- Tmax [3, 4]: 15 min
- AUC(0-t) ([3]; mouse, plasma, ip, 10.948 mg/kg, mean, read-out: AUC0-last, plasma COMPOUND B): 4.35 ng·h/mL
- Cmax ([3]; mouse, plasma, ip, 10.948 mg/kg, mean, read-out: Cmax, plasma COMPOUND B): 16 ng/mL
- MRT last [3, 5]: 22.3 min
- Tmax [3, 5]: 20 min
